Test results reported in paper PMC4266452, “Prediction of Thorough QT study results using action potential simulations based on ion channel screens” (Journal of Pharmacological and Toxicological Methods, 2014).
Where “and” joins values, the source holds several entries; their conditions need not be identical. Equal values may be shown once. Read-outs that look alike come from different tables or passages of the source.

Assays:
[1] = ref Gintant (2011); cited from earlier work
[2] = target: T1, CaV1.2 (Homo sapiens, UniProt Q13936); test: IonWorks Quattro CaV1.2 screen (AstraZeneca, Q)
[3] = Plasma concentration (Cmax) during the TQT study, total and calculated free; assay type: in vivo, human
[4] = target: T2, hERG (Homo sapiens, UniProt Q12809); test: IonWorks Quattro hERG screen (AstraZeneca, Q)
[5] = ref Gintant (2011), cited from earlier work
[6] = target: T3, KCNQ1/MinK (Homo sapiens, UniProt P51787); test: IonWorks Quattro KCNQ1/MinK screen (AstraZeneca, Q); details: −log10 of IC50 in Molar
[7] = target: T4, NaV1.5 (Homo sapiens, UniProt Q14524); test: IonWorks Quattro NaV1.5 screen (AstraZeneca, Q)
[8] = target: T5, Kv4.3/KChIP2.2 (Homo sapiens, UniProt Q9UK17); test: IonWorks Quattro Kv4.3/KChIP2.2 screen (AstraZeneca, Q); assay type: cell-based
T5 sequence (Q9UK17 1-655): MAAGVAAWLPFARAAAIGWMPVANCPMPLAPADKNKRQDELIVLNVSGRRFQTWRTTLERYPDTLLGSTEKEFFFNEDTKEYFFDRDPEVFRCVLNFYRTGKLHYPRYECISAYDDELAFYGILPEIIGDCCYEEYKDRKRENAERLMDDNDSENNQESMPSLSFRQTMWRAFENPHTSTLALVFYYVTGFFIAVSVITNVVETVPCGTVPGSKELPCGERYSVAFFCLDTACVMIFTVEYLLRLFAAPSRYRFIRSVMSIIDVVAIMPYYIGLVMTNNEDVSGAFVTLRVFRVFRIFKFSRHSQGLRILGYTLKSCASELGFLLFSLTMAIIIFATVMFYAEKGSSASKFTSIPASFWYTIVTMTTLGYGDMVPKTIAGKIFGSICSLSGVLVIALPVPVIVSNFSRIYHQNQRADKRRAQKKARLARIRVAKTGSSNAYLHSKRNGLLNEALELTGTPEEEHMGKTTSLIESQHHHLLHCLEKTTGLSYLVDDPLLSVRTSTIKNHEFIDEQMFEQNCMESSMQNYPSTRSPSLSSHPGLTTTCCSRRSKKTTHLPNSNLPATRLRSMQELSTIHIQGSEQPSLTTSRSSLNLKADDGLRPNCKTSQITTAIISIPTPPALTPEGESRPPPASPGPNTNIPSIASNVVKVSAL
T5 sequence (Q9NS61 1-270 partner): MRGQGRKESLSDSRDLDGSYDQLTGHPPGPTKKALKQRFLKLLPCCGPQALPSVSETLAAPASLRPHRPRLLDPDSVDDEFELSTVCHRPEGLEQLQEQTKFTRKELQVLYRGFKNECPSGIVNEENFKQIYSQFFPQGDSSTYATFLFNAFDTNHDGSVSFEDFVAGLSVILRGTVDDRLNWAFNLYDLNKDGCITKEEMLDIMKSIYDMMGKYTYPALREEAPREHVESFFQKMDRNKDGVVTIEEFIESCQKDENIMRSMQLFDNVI

[9] = target: T4, NaV1.5; test: Second IonWorks Quattro NaV1.5 screen (GSK, Q2)
[10] = target: T3, KCNQ1/MinK
[11] = target: T1, CaV1.2; test: IonWorks Barracuda CaV1.2 screen (GSK, B)
[12] = target: T2, hERG; details: cited from earlier work
[13] = tested on: QT interval on the body surface ECG; details: cited from earlier work
[14] = IonWorks Quattro, −log10 of IC50 in Molar, Hill n = 1, 0.0 = pIC50 ≤ 0 fitted
[15] = Hill n = 1, 0.0 = pIC50 ≤ 0 fitted
[16] = Cmax high, calculated from ng/mL and molecular weight
[17] = Cmax high, calculated with PPB and molecular weight
[18] = IonWorks Quattro, −log10 of IC50 in Molar, Hill n = 1, […]
[19] = Cmax low, calculated with PPB and molecular weight
[20] = second independent Quattro screening, −log10 of IC50 in Molar, 0.0 = pIC50 ≤ 0 fitted
[21] = Cmax low, calculated from ng/mL and molecular weight

Compound | PPB (percent plasma binding) [1] | KCNQ1 pIC50 (Q) [6, 15] | NaV1.5 pIC50 (Q) [7, 14] | CaV1.2 pIC50 (Q) [2] | Cmax TOTAL [3, 16] [nM] | Cmax FREE ([3]; Cmax high, calculated with PPB) [ng/mL] | Cmax FREE [3, 17] [nM] | Cmax TOTAL ([5]; Cmax high) [ng/mL] | CaV1.2 pIC50 (B) [11] | Free plasma concentration ([3]; Cmax high) [nM] | Free plasma concentration ([3]; Cmax low) [nM] | Cmax FREE ([3]; Cmax low, calculated with PPB) [ng/mL] | Cmax FREE [3, 19] [nM] | Cmax TOTAL ([5]; Cmax low) [ng/mL] | Cmax TOTAL [3, 21] [nM] | Kv4.3 pIC50 (Q) [8, 14] | other results
C[C@H]1CN(C[C@H](Cc2ccccc2)C(=O)NCC(=O)O)CC[C@@]1(C)c1cccc(O)c1 [Alvimopan] | 70% | 4.3 | 3.6 |  |  |  |  |  |  |  |  |  |  |  |  |  | CaV1.2 pIC50 (Q) [2, 14]: 5.3; Cmax FREE ([3]; 12mg Capsule): 2.97 ng/mL and 6.996 nM; Cmax TOTAL ([3]; 12mg Capsule): 23.3199 nM; Free plasma concentration ([3]; 12mg Capsule): 6.996 nM; Cmax FREE ([3]; 24 extrapolate): 5.94 ng/mL and 13.9919 nM; Cmax TOTAL ([3]; 24 extrapolate): 19.8 ng/mL and 46.6398 nM; Free plasma concentration ([3]; 24 extrapolate): 13.99 nM; IC50 [4]: 63.1 mM; Cmax TOTAL ([5]; 12mg Capsule): 9.9 ng/mL
CNCC[C@H](Oc1cccc2ccccc12)c1cccs1 [Duloxetine] | 90% |  |  | 4.0 | 1008.69 | 30 | 100.869 | 300 | 4.6 |  |  |  |  |  |  |  | Kv4.3 pIC50 (Q) [8]: 4.0; NaV1.5 pIC50 (Q2) [9]: 4.8; KCNQ1 pIC50 (Q) [10]: 5.0; NaV1.5 pIC50 (Q) [7]: 5.1
COC[C@@H](NC(C)=O)C(=O)NCc1ccccc1 [Lacosamide] | 6% PPB |  |  |  |  | 19928 | 79618.4 |  |  | 79618.4 | 41311.4 | 10340 | 41311.4 |  |  |  | CaV1.2 pIC50 (Q) [2, 18]: 4.3; KCNQ1 pIC50 (Q) [10]: 3.6
Nc1nnc(-c2cccc(Cl)c2Cl)c(N)n1 [Lamotrigine] | 55% PPB |  | 4.0 | 2.8 | 37525.9 | 4324.5 | 37525.9 | 9610 | 2.9 | 37525.9 | 28193.2 | 3249 |  | 7220 |  |  | NaV1.5 pIC50 (Q2) [9, 20]: 4.4
CS(=O)(=O)CCNCc1ccc(-c2ccc3ncnc(Nc4ccc(OCc5cccc(F)c5)c(Cl)c4)c3c2)o1 [Lapatinib] |  | 3.6 | 2.5 | 2.7 | 5512.340 | 32.030 | 55.123 | 3203.000 | 1.8 | 55.12 | 23.9 | 13.890 | 23.905 | 1389.000 | 2390.459 |  | 
Cc1c(O)cccc1C(=O)N[C@@H](CSc1ccccc1)[C@H](O)CN1C[C@H]2CCCC[C@H]2C[C@H]1C(=O)NC(C)(C)C [Nelfinavir] |  |  |  |  | 19197.2 | 45.78 | 80.6284 | 10900 |  | 80.63 | 61.4 | 34.86 | 61.3959 | 8300 | 14618.1 | 2.3 | hERG pIC50 (M) [12]: 4.9; IC50 [4]: 31.6 mM; upper 90% confidence limit of QTc change ([13]; at every time point, ref Damle et al., J Clin Pharm. (49):291-300. 2009): a) upper 90% confidence limit below 10 msec at every; TQT study outcome in words (COMMENTS) ([13]; ref Gintant (2011)): Damle et al concludes negative TQT study since; relationship between exposure and QTc in words (COMMENTS) ([13]; ref Gintant (2011)): time point and b) PK-PD model slopes were negative
Cc1nc2n(c(=O)c1CCN1CCC(c3noc4cc(F)ccc34)CC1)CCCC2O (stereo not drawn) [Paliperidone] | 73% PPB |  | 4.6 | 3.4 | 264.953 | 30.51 | 71.5374 | 113 | 3.0 | 71.54 | 22.16 | 9.45 | 22.1576 | 35 | 82.0652 | 4.2 | NaV1.5 pIC50 (Q2) [9, 20]: 3.8
C[C@H](Cc1cc2c(c(C(N)=O)c1)N(CCCO)CC2)NCCOc1ccccc1OCC(F)(F)F [Silodosin] | 95% PPB | 3.6 | 4.2 |  | 290.598 | 7.2 | 14.530 | 144 |  | 14.53 | 4.288 | 2.125 | 4.288 | 42.5 | 85.767 | 3.5 | CaV1.2 pIC50 (Q) [2, 14]: 3.1; IC50 at 3 min ([4]; human, CHO K1 cells stably transfected with human ERG): 0.0251 mM
CCN(CC)CCNC(=O)c1c(C)[nH]c(/C=C2\C(=O)Nc3ccc(F)cc32)c1C [Sunitinib] |  |  |  |  | 150.207 | 4.000 | 7.510 | 80.000 |  | 7.51 |  |  |  |  |  | 4.3 | CaV1.2 pIC50 (Q) [2, 14]: 4.1; CaV1.2 pIC50 (B) ([11]; IonWorks Barracuda, −log10 of IC50 in Molar, Hill n = 1, 0.0 = pIC50 ≤ 0 fitted): 3.7
Cc1cn([C@@H]2C[C@@H](O)[C@H](CO)O2)c(=O)[nH]c1=O [Telbivudine] | 3.3% | 3.6 |  |  | 27246.8 | 6382.2 | 26347.7 | 6600 |  |  |  | 2127.4 | 8782.56 | 2200 | 9082.28 |  | IC50 [4]: 5.01 mM; NaV1.5 pIC50 (Q) [7]: 2.5
Cc1ccc(O)c([C@H](CCN(C(C)C)C(C)C)c2ccccc2)c1 [Tolterodine] | 96.30% |  |  |  | 36.307 | 0.703 | 1.343 | 19.00 | 4.6 | 1.343 | 0.6434 | 0.337 | 0.643 | 9.10 | 17.389 |  | Kv4.3 pIC50 (Q) [8, 18]: 4.9; KCNQ1 pIC50 (Q) ([6]; Hill n = 1, […]): 4.1
